Some test systems named below: LOX IMVI melanoma; HCC-2998 colon; OVCAR-4 ovarian; HCT-116 colon; SN12C renal; SF-295 CNS; UO-31 renal; MDA-MB-435; HL-60(TB) leukemia; U251 CNS.
Assay in all cases: inhibition of tumour cell growth, NCI panel, 48 h

SMILES strings stand for the structures.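 All cell lines were grown in 96-well plates and treated with compound for 48 hours. The concentration for 50% growth inhibition is given as GI50. TGI: concentration producing complete growth inhibition.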

On to `CCc1c(Cl)c(C)cc(O)c1Cl`, for which the TGI with LOX IMVI melanoma is 51.7 µM; with HCC-2998 colon it was 26.7 µM; with OVCAR-4 ovarian, greater than 100 µM; with HCT-116 colon, greater than 100 µM; in the assay with SN12C renal it was 30.9 µM; in the assay on SF-295 CNS, greater than 100 µM. The TGI is 56.8 µM in the assay with UO-31 renal, greater than 100 µM in the assay on MDA-MB-435, 40.8 µM in the assay with HL-60(TB) leukemia and 29 µM with U251 CNS.
On to `O=C1c2cc3c(cc2-c2c1c1cc(Cl)c(Cl)cc1c(=O)n2C[C@H](O)CO)OCO3`, for which the GI50 in the assay on LOX IMVI melanoma is less than 0.01 µM; in the assay with HCC-2998 colon, 0.0451 µM; with SN12C renal, less than 0.01 µM; with SF-295 CNS, less than 0.01 µM; in the assay on MDA-MB-435, 0.0111 µM; with HL-60(TB) leukemia, less than 0.01 µM. For the same compound, the GI50 in the assay with U251 CNS is less than 0.01 µM. For the same compound, the TGI came out at 0.0117 µM in the assay on LOX IMVI melanoma; 3.29 µM in the assay with HCC-2998 colon; 0.122 µM with SN12C renal; 0.168 µM in the assay on MDA-MB-435; 10.5 µM in the assay with HL-60(TB) leukemia; 0.0368 µM in the assay with U251 CNS.
Consider `Cn1c(=O)c(Oc2ccc(F)cc2)cc2cnc(NC3CCOCC3)nc21`, for which the GI50 in the assay with LOX IMVI melanoma, in the assay with HCC-2998 colon, with OVCAR-4 ovarian, with HCT-116 colon, in the assay with SN12C renal and in the assay on SF-295 CNS was greater than 25 µM each time. The GI50 was greater than 10.5 µM with UO-31 renal, greater than 25 µM in the assay on MDA-MB-435, greater than 25 µM in the assay on HL-60(TB) leukemia and greater than 25 µM in the assay on U251 CNS. Besides, the TGI in the assay with LOX IMVI melanoma, in the assay on HCC-2998 colon, in the assay on OVCAR-4 ovarian, in the assay on HCT-116 colon, in the assay on SN12C renal and in the assay on SF-295 CNS was greater than 25 µM each time. The TGI in the assay on UO-31 renal was greater than 18.6 µM; in the assay with MDA-MB-435 it was greater than 25 µM; in the assay on HL-60(TB) leukemia, greater than 25 µM; with U251 CNS, greater than 25 µM.
Consider `CCOC(=O)/C=C/c1ccc(C#Cc2ccccc2)cc1`, for which the GI50 was greater than 100 µM with LOX IMVI melanoma; greater than 100 µM with HCC-2998 colon; 68.4 µM in the assay with OVCAR-4 ovarian; greater than 100 µM with HCT-116 colon; greater than 100 µM in the assay with SN12C renal; 55.1 µM with SF-295 CNS. In addition, the GI50 in the assay with UO-31 renal was 38.4 µM; in the assay with MDA-MB-435, greater than 100 µM; in the assay on HL-60(TB) leukemia, greater than 100 µM; in the assay on U251 CNS, greater than 100 µM. Further, the TGI with LOX IMVI melanoma, in the assay on HCC-2998 colon, in the assay with OVCAR-4 ovarian, in the assay with HCT-116 colon, in the assay with SN12C renal and in the assay on SF-295 CNS was greater than 100 µM each time. The TGI with UO-31 renal, in the assay with MDA-MB-435, in the assay on HL-60(TB) leukemia and in the assay on U251 CNS was greater than 100 µM throughout.
For `O=C(CNS(=O)(=O)Cc1ccccc1)NNc1ccccc1`, the TGI with LOX IMVI melanoma, in the assay with HCC-2998 colon, in the assay with OVCAR-4 ovarian, in the assay with HCT-116 colon, in the assay on SN12C renal and in the assay with SF-295 CNS was greater than 100 µM throughout. Further, the TGI in the assay on UO-31 renal, with MDA-MB-435, in the assay on HL-60(TB) leukemia and in the assay with U251 CNS was greater than 100 µM throughout.
With `O=[P@@]1(c2ccccc2)O[C@H](COCc2ccccc2)[C@@H](OCc2ccccc2)[C@H](OCc2ccccc2)[C@H]1NCc1ccccc1`, the GI50 in the assay with LOX IMVI melanoma was 3.25 µM; in the assay with HCC-2998 colon it was 4.26 µM; in the assay with OVCAR-4 ovarian it was 3.47 µM; in the assay with HCT-116 colon, 2.74 µM; in the assay on SN12C renal it was 1.83 µM; in the assay with SF-295 CNS it was 2.05 µM. The results for the GI50 with MDA-MB-435, with HL-60(TB) leukemia and in the assay with U251 CNS were 2.92 µM, 2.15 µM and 2.97 µM, respectively. The TGI in the assay on LOX IMVI melanoma was 18.6 µM; in the assay with HCC-2998 colon, greater than 100 µM; in the assay on OVCAR-4 ovarian, 48.9 µM; with HCT-116 colon, greater than 100 µM; with SN12C renal, 3.6 µM; in the assay on SF-295 CNS, 6.68 µM. For the same compound, the TGI is greater than 100 µM in the assay with MDA-MB-435, 6.09 µM in the assay with HL-60(TB) leukemia and greater than 100 µM in the assay on U251 CNS.
On to `O=C(/C=C/C=C/c1ccccc1)c1ccccc1`, for which the TGI in the assay with LOX IMVI melanoma came out at 29.3 µM; in the assay on HCC-2998 colon, 31.7 µM; in the assay with OVCAR-4 ovarian, 39.7 µM; in the assay with HCT-116 colon it was 31.4 µM; in the assay with SN12C renal, 29.7 µM; in the assay with UO-31 renal it was 38.2 µM. Also, the TGI with MDA-MB-435 was 34.2 µM; in the assay with HL-60(TB) leukemia, 28.6 µM; in the assay with U251 CNS, 27 µM.
Consider `COC(=O)c1ccc(-c2c(C#N)[n+](=O)c3cc(Cl)c(Cl)cc3n2[O-])cc1`, for which the GI50 in the assay with LOX IMVI melanoma is 2.38 µM; in the assay with HCC-2998 colon, 16.9 µM; in the assay on OVCAR-4 ovarian, 19.7 µM; in the assay on HCT-116 colon it was 13.3 µM; in the assay with SN12C renal, 14.7 µM; in the assay on SF-295 CNS, 12.5 µM. Further, the GI50 in the assay with UO-31 renal was 26.3 µM; in the assay on MDA-MB-435, 17.9 µM; in the assay on U251 CNS, 16.7 µM. Besides, the TGI is 5.37 µM in the assay with LOX IMVI melanoma; 37.7 µM with HCC-2998 colon; 38 µM with OVCAR-4 ovarian; greater than 100 µM in the assay on HCT-116 colon; 29.3 µM in the assay on SN12C renal; 33.7 µM with SF-295 CNS. The TGI in the assay with UO-31 renal is 67.3 µM; with MDA-MB-435, 37 µM; in the assay on U251 CNS, 44.9 µM.
In the case of `CCCCCCCN=C(N)c1ccc(N2CCN(c3ccc(C(N)=NCCCCCCC)cc3)CC2)cc1`, the GI50 in the assay with LOX IMVI melanoma is 1.52 µM; with HCC-2998 colon it was 0.0231 µM; in the assay with OVCAR-4 ovarian it was 1.05 µM; in the assay on SN12C renal, 1.08 µM; in the assay with SF-295 CNS, 0.0628 µM; with UO-31 renal it was 0.781 µM. Also, the GI50 with MDA-MB-435 was 0.0254 µM; in the assay on U251 CNS, 1.45 µM. Further, the TGI in the assay with LOX IMVI melanoma is 19.1 µM; in the assay on HCC-2998 colon, 0.163 µM; with OVCAR-4 ovarian, greater than 13.2 µM; in the assay with HCT-116 colon it was greater than 72.1 µM; in the assay on SN12C renal, 14.7 µM; in the assay with SF-295 CNS, 0.28 µM. Also, the TGI is greater than 100 µM in the assay with UO-31 renal, 0.0992 µM with MDA-MB-435 and 9.34 µM in the assay on U251 CNS.
Take `CC12CCC3c4ccc(O)cc4CCC3C1C/C(=N\O)C2O` (configuration not stated): the TGI in the assay on LOX IMVI melanoma, in the assay with OVCAR-4 ovarian, in the assay with HCT-116 colon, in the assay with SN12C renal, in the assay on SF-295 CNS and in the assay on UO-31 renal was greater than 100 µM each time. Further, the TGI in the assay with MDA-MB-435, in the assay on HL-60(TB) leukemia and with U251 CNS was greater than 100 µM throughout.
In the case of `CC(C)=CCc1cc(O)cc2c1OC(C=C(C)C)C1=C2C(=O)C2=C(C1=O)S(=O)(=O)CCN2` (configuration not stated), the GI50 with LOX IMVI melanoma was 3.48 µM; with HCC-2998 colon it was 5.53 µM; with OVCAR-4 ovarian, 2.77 µM; in the assay on HCT-116 colon it was 2.97 µM; with SN12C renal it was 2.7 µM; in the assay on UO-31 renal, 6.23 µM. For the same compound, the GI50 in the assay with MDA-MB-435 was 3.05 µM; in the assay on U251 CNS it was 2.84 µM. The TGI in the assay on LOX IMVI melanoma is 10.2 µM; in the assay on HCC-2998 colon, greater than 16.7 µM; in the assay on OVCAR-4 ovarian it was 6.72 µM; with HCT-116 colon, 7.14 µM; with SN12C renal it was 5.45 µM; with UO-31 renal, greater than 16.7 µM. Besides, the TGI in the assay on MDA-MB-435 was 5.8 µM; in the assay with U251 CNS it was 5.15 µM.
Turning to `CSc1ccccc1C#C/C=C\C#Cc1ccccc1N`, the GI50 is 9.52 µM with LOX IMVI melanoma; 29.9 µM in the assay on OVCAR-4 ovarian; 4.58 µM with HCT-116 colon; 8.93 µM in the assay with SN12C renal; 1.83 µM with SF-295 CNS; 17 µM with UO-31 renal. The values for the GI50 with MDA-MB-435, in the assay on HL-60(TB) leukemia and in the assay on U251 CNS were 0.982 µM, 3.97 µM and 10.3 µM, respectively. Further, the TGI in the assay with LOX IMVI melanoma was 25.2 µM; in the assay on OVCAR-4 ovarian it was 71 µM; in the assay on HCT-116 colon, 16.9 µM; in the assay on SN12C renal it was 27.7 µM; with SF-295 CNS it was 5.55 µM; in the assay on UO-31 renal, greater than 100 µM. For the same compound, the values for the TGI with MDA-MB-435, in the assay with HL-60(TB) leukemia and with U251 CNS were 2.49 µM, greater than 100 µM and 55.3 µM, respectively.
Regarding `COc1ccc(/C(=C\C=C(C#N)C#N)Sc2nc3ccccc3s2)cc1`, the GI50 in the assay on HCC-2998 colon was 9.02 µM; in the assay on SN12C renal it was 7.06 µM; in the assay on SF-295 CNS it was 13.6 µM; with UO-31 renal it was 15.6 µM; in the assay with MDA-MB-435, 8.34 µM; in the assay with U251 CNS it was 3.39 µM. Besides, the TGI in the assay on HCC-2998 colon is 16.9 µM; with SN12C renal, 32.8 µM; with SF-295 CNS, 39.9 µM; in the assay with UO-31 renal it was greater than 50 µM; with MDA-MB-435, 18.5 µM; in the assay with U251 CNS it was 11 µM.
For `COc1ccc(-c2cc(/C=C/C(=O)c3ccc(OC)c(OC)c3)[nH]n2)cc1`, the GI50 with HCC-2998 colon is 2.02 µM; in the assay on OVCAR-4 ovarian, 0.509 µM; in the assay on HCT-116 colon it was 1.01 µM; in the assay on SN12C renal, 1.64 µM; with SF-295 CNS, 2.08 µM; in the assay on UO-31 renal it was 1.17 µM. In addition, the GI50 with MDA-MB-435 is 1.84 µM; with HL-60(TB) leukemia it was 2.18 µM; with U251 CNS, 1.11 µM. Moreover, the TGI in the assay with HCC-2998 colon was 3.97 µM; in the assay with OVCAR-4 ovarian it was 3.87 µM; with HCT-116 colon it was 2.48 µM; with SN12C renal, 3.78 µM; in the assay on SF-295 CNS, 5.37 µM; in the assay with UO-31 renal, 2.44 µM. In addition, the results for the TGI in the assay on MDA-MB-435, with HL-60(TB) leukemia and in the assay on U251 CNS were 3.88 µM, 6.4 µM and 2.34 µM, respectively.
Consider `Oc1ccc2ccccc2c1N=Nc1ccc(Br)cc1`, for which the TGI with LOX IMVI melanoma was greater than 100 µM; in the assay on OVCAR-4 ovarian it was 96.3 µM; with HCT-116 colon, greater than 100 µM; with SN12C renal it was greater than 100 µM; in the assay with SF-295 CNS it was greater than 100 µM; in the assay on UO-31 renal, greater than 100 µM. Further, the TGI with MDA-MB-435, in the assay with HL-60(TB) leukemia and with U251 CNS was greater than 100 µM throughout.

The record behind these values is PubChem BioAssay (NCI).
